Test results published in PMC6290777, “Inhalation of the prodrug PI3K inhibitor CL27c improves lung function in asthma and fibrosis” (Nature Communications, 2018).

Experiments:
[1] = system: Akt phosphorylation (Ser473) in bone marrow-derived macrophages (BMDM); assay: Akt phosphorylation in BMDM stimulated with C5a; type: cell-based, mouse; conditions: C5a 25 nM
Method: BMDMs were obtained from bone marrows isolated from femurs and tibias of C57BL/6J mice. Bone marrow cells were cultured in a petri plate in the presence of RPMI additioned with 30% L-cell conditioned medium (supernatant of 5 days culture of L929 cells), 20% FBS and 100 μg/ml penicillin and streptomycin. After about 7 days, almost all cells became attached BMDM. BMDM were pretreated with Versene (GIBCO^TM #15040066) to detach them from the plate, washed, and placed on a 24 wells culture plate at a density of 2 × 10^5 cell/well in RPMI free medium. After 6 h of starvation, BMDMs were pretreated with CL27c at different concentrations and stimulated with C5a (25 nM, Sigma-Aldrich #SRP4895A) for 5 min. Proteins were extracted with Laemnli buffer.
For all cell types, phosphorylated Akt (P-Akt, Ser 473, 1:100, Cell Signaling Technology #4060) production was detected by western blot analysis and quantified with ChemiDoc™ XRS system. P-Akt signals are normalized on endogenous. For the calculation of EC50 values, a percentage of residual P-Akt was calculated for each inhibitor concentration by using the control vehicle as 100%. To derive the EC50, all data were plotted on a dose response curve (Graph Pad software) and the EC50 was calculated by using the non-linear regression fit (equation [log agonist] vs response–variable slope). […]
panel). […] The respective EC50 was calculated by using nonlinear

[2] = system: human lung fibroblasts (HLF); assay: Cell survival of human lung fibroblasts (CellTiter-Glo); type: cell-based; conditions: TGF-β 10 ng/ml, 48 hours; CL27c 1 and 10 µM
Method: Human lung fibroblast cell culture
Two separate human lung fibroblast cell lines isolated from IPF patients were used: LL97a derived from a person (ATCC, Manassas, USA) and DHLF-IPF (#CC-7231, Lonza, Switzerland). Control cell lines were CCD-16Lu, obtained from a person that died of astrocytoma –a disease unrelated to IPF - (ATCC) and NHLF (#CC-2512; Lonza). LL97a and CCD-16Lu cells were cultured in Dulbecco's modified Eagles medium (DMEM, Sigma Aldrich, Dorset, UK). Media was supplemented with penicillin/streptomycin (100 U/ml, Thermo-Fischer, Germany) and 10% fetal bovine serum (FBS, Thermo-Fischer, Germany). Cells from Lonza were cultured in the FGMTM (#CC-3132, Lonza). […]
Caliper based assay, the reaction was terminated by addition of EDTA buffer. Substrate and product were separated and quantified electrophoretically using the microfluidic-based and the assay plate was read on Caliper LabChip 3000 Drug Discovery System from Caliper Life Sciences (Walthan, MA, USA). ADP Glo was another method of detection used for some kinase assays where data was obtained by quantifying the intensity of luminescence. For ADP Glo based assay, the reaction was terminated by applying the Promega ADP Glo Kinase Assay kit and the assay plate was read on a LJL Biosystems Analyst HT. […]

COC(=O)c1cccc(Cn2cc(-c3cccc4c(=O)cc(N5CCOCC5)[nH]c34)nn2)c1 [CL27c]
Akt/PKB phosphorylation [1]: readily reduced Akt/PKB phosphorylation | survival of HLF lines [2]: reduced survival at 1 and 10 µM
